Tests used:
ZigA = details: read-out: apparent Km; Zn-bound ZigA (2 µM), 2 mM MgCl2, 150 mM NaCl, 20 mM Tris-HCl pH 8.0
[1] = target: ZigA (Zur-induced GTPase A) (A. baumannii); test: SEC

| Compound | Km (ZigA) [µM] | stoichiometry N [1] |
| --- | --- | --- |
| Nc1nc2c(ncn2[C@@H]2O[C@H](COP(=O)(O)OP(=O)(O)OP(=O)(O)O)[C@@H](O)[C@H]2O)c(=O)[nH]1 [GTP] | 150 | – |
| ZigA (Zur-induced GTPase A) (enzyme) | – | 2 |

Reference: paper PMC4901392 (Cell host & microbe, 2016)
